Here are results for 8 compounds from patent publication US7626005B2, “Inhibitors of aminoglycoside 6′-N-acetyltransferases, compositions and uses thereof” (priority 2005, dated 2009).

Test [1] deals with T1, AAC(6′)-Ii (Enterococcus faecium, UniProt Q47764). Put plainly: AAC6′-Ii inhibition assay (DTDP-coupled, varying AcCoA). The class given is biochemical. Details: made in house; host or cells: Escherichia coli BL21. Conditions: for type of inhibition (in words): versus acetylCoA; for Vm: maximal velocity from the fit of the inhibition assay; for enhanced inhibition of AAC(6′)-Ii as compared to lysine-CoA conjugates (3a and 3b): relative to 3a and 3b. As to the method: AAC(6′)-Ii was obtained using a previously described protocol (Wright and Ladak, 1997). The Escherichia coli strain BL21 was transformed with a pET22b expression plasmid containing the AAC(6′)-Ii gene. The bacteria were grown in Luria-Bertani (LB) media at 37° C. containing ampicillin (100 μg/mL). Expression of the protein was induced using isopropyl-β-D-thiogalactoside (IPTG). After harvesting the cells by centrifugation and washing them with a 0.85% NaCl solution, the cells were lysed by sonication. AAC(6′)-Ii was purified in a two-step process: firstly, the lysate was ran through a Q-Sepharose ion exchange column (GE Healthsciences), and secondly the AAC(6′)-Ii containing fractions were further purified using a Gentamicin agarose affinity column (BioRad).
Enzyme activity was monitored using a procedure described elsewhere (Williams and Northrop, 1978). Thus, reaction mixtures in HEPES (1 mM, pH=7.5) and containing 4,4′-dithiodipyridine (DTDP, 2 mM), aminoglycoside (200 μM), and AAC(6′)-Ii (25 μg/mL) were prepared with varying concentrations of AcCoA. Reaction volumes were typically 400 μl. The assay mixtures were preincubated for 1 min at 37° C. The initial rates V were fit to Equation S1, where [S] is the concentration of AcCoA, Km is the Michaelis-Menten constant, and Vm is the maximal velocity: [S]/V=[S]/Vm+Km/Vm (S1)
The initial reaction velocity (steady-state) in the presence of inhibitors was measured as described above. The initial rates obtained at various concentrations of inhibitor were fit to Equation S2 for competitive inhibition, to Equation S3 for […] inhibition, or to Equation S4 for uncompetitive inhibition, where [I] is the concentration of inhibitor and Ki is the inhibition constant: [S]/V=[S]/Vm+(1+[I]/Ki)Km/Vm (S2) [S]/V=(1+[I]/Ki)[S]/Vm+Km/Vm (S3) [S]/V=(1+[I]/Ki)[S]/Vm+(1+[I]/Ki)Km/Vm (S4)

A further test deals with T2, AAC(6′)-Iy (Salmonella enteritidis, UniProt Q9R381).
T2 sequence (Q9R381 1-145): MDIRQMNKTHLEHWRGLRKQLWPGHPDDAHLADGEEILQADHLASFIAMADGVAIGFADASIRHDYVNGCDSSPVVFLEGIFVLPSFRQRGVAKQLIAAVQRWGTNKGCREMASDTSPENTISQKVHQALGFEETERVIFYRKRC
Kind of test: Inhibition assay of AAC(6′)-Iy. The class given is biochemical, Salmonella enterica. Conditions: for Ki: Table 2.

For test [2], the target named is T1, AAC(6′)-Ii. Particulars: read-out: Michaelis-Menten constant (Km); acetyl CoA as substrate of AAC(6′)-Ii; cited from earlier work.
[3] abbreviates: Ki (μM), Table 1, inhibition of AAC(6′)-Ii, varying AcCoA.
Where [4] appears, read: inhibition constant (Ki), running text b80.

Structures are written as SMILES.

T1 sequence (Q47764 1-182): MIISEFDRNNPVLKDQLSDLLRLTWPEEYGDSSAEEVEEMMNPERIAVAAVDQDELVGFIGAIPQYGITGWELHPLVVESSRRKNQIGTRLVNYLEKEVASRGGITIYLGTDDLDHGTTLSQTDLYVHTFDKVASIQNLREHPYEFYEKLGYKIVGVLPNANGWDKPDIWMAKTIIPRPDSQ

Turning to `COC(=O)C(CCCCNC(=O)CSCCNC(=O)CCNC(=O)C(O)C(C)(C)COP(=O)(O)OP(=O)(O)OCC1OC(n2cnc3c(N)ncnc32)C(O)C1OP(=O)(O)O)NC(C)=O` (centres unmarked) [Compound 3a], on AAC(6′)-Ii [1], the “inhibition of AAC(6′)-Ii (in words)” value is on record as “moderate inhibition” and the “type of inhibition (in words)” value was “moderate competitive inhibition”. In addition, the inhibition constant (Ki) on AAC(6′)-Ii [1] (setting [3]) is ≥ 130 µM. The compound also showed a Ki on AAC(6′)-Ii [1] (setting [4]) of 130 µM.
Taken in the same sequence, the figures for `COC(=O)C(CCCCNC(=O)CCSCCNC(=O)CCNC(=O)C(O)C(C)(C)COP(=O)(O)OP(=O)(O)OCC1OC(n2cnc3c(N)ncnc32)C(O)C1OP(=O)(O)O)NC(C)=O` (centres unmarked) [Compound 3b] were “moderate inhibition”, “moderate competitive inhibition”, ≥ 30 µM and 30 µM.
In the case of `CC(C)(COP(=O)(O)OP(=O)(O)OCC1OC(n2cnc3c(N)ncnc32)C(O)C1OP(=O)(O)O)C(O)C(=O)NCCC(=O)NCCSCC(=O)NCC1OC(OC2C(N)CC(N)C(O)C2O)C(N)C(O)C1O` (centres unmarked) [Compound 10a], the “Ki values (in words)” value at AAC(6′)-Iy is “near submicromolar”; on AAC(6′)-Ii [1], “submicromolar range”. For the same compound, the Ki on AAC(6′)-Iy came out at 2.76 ± 0.4 µM; on AAC(6′)-Ii [1] (AAC(6′)-Ii [Ki, (μM)], Table 2) it was 0.076 ± 0.025 µM; at AAC(6′)-Ii [1] (setting [3]), 0.076 ± 0.025 µM. Besides, the “Vm” value at AAC(6′)-Ii [1] (Table 1) is 0.15 ± 0.01 µM/s. Also, the “enhanced inhibition of AAC(6′)-Ii as compared to lysine-CoA conjugates (3a and 3b)” value on AAC(6′)-Ii [1] came out at 500 fold. Also, the results for the “type of inhibition (in words)” value on AAC(6′)-Ii [1] and at AAC(6′)-Ii [1] (listed as 10) were “potent competitive inhibitors” and “competitive inhibition versus acetylCoA”, respectively.
Take `CC(C)(COP(=O)(O)OP(=O)(O)OCC1OC(n2cnc3c(N)ncnc32)C(O)C1OP(=O)(O)O)C(O)C(=O)NCCC(=O)NCCSCCC(=O)NCC1OC(OC2C(N)CC(N)C(O)C2O)C(N)C(O)C1O` (centres unmarked) [Compound 10b]: on AAC(6′)-Iy, the “Ki values (in words)” value is given as “near submicromolar” and the affinity corresponds to a Ki of 1.89 ± 0.3 µM. At AAC(6′)-Ii [1], the “Ki values (in words)” value was “submicromolar range”, the “inhibition of AAC(6′)-Ii (in words)” value is listed as “highest inhibition among all the inhibitors” and the “type of inhibition (in words)” value was “potent competitive inhibitors”. The compound further registered a Ki on AAC(6′)-Ii [1] (AAC(6′)-Ii [Ki, (μM)], Table 2) of 0.043 ± 0.023 µM.
`CC(C)(COP(=O)(O)OP(=O)(O)OCC1OC(n2cnc3c(N)ncnc32)C(O)C1OP(=O)(O)O)C(O)C(=O)NCCC(=O)NCCSCCCC(=O)NCC1OC(OC2C(N)CC(N)C(O)C2O)C(N)C(O)C1O` (centres unmarked) [Compound 10c]: on AAC(6′)-Iy, the “Ki values (in words)” value is reported as “near submicromolar” and the affinity, expressed as Ki, was 2.1 ± 0.3 µM. For the same compound, at AAC(6′)-Ii [1], the “Ki values (in words)” value was “submicromolar range” and the “type of inhibition (in words)” value was “potent competitive inhibitors”. On AAC(6′)-Ii [1] (AAC(6′)-Ii [Ki, (μM)], Table 2), this compound gave a Ki of 0.161 ± 0.098 µM.
As to `CC(C)(COP(=O)(O)OP(=O)(O)OCC1OC(n2cnc3c(N)ncnc32)C(O)C1OP(=O)(O)O)C(O)C(=O)NCCC(=O)NCCSCCCCC(=O)NCC1OC(OC2C(N)CC(N)C(O)C2O)C(N)C(O)C1O` (centres unmarked) [Compound 10d], the “Ki values (in words)” value on AAC(6′)-Iy is on record as “near submicromolar”. For the same compound, the Ki worked out at 1.9 ± 0.3 µM on AAC(6′)-Iy and 7.99 ± 2.66 µM at AAC(6′)-Ii [1] (AAC(6′)-Ii [Ki, (μM)], Table 2).
As for `CC(C)(COP(=O)(O)OP(=O)(O)OCC1OC(n2cnc3c(N)ncnc32)C(O)C1OP(=O)(O)O)C(O)C(=O)NCCC(=O)NCCSCC(=O)NCC1OC(OC2C(N)CC(N)C(O)C2OC2OC(CO)C(O)C2O)C(N)C(O)C1O` (centres unmarked) [Compound 12], the Ki was found to be 1.1 ± 0.1 µM at AAC(6′)-Iy; 0.119 ± 0.014 µM on AAC(6′)-Ii [1] (AAC(6′)-Ii [Ki, (μM)], Table 2); 0.119 ± 0.014 µM at AAC(6′)-Ii [1] (setting [3]). Further, the “Vm” value at AAC(6′)-Ii [1] (Table 1) was 0.14 ± 0.04 µM/s. The “enhanced inhibition of AAC(6′)-Ii as compared to lysine-CoA conjugates (3a and 3b)” value on AAC(6′)-Ii [1] was found to be 500 fold. Further, the “type of inhibition (in words)” value at AAC(6′)-Ii [1] is given as “competitive inhibition versus acetylCoA”.
In the case of `CC(=O)SCCNC(=O)CCNC(=O)[C@H](O)C(C)(C)COP(=O)(O)OP(=O)(O)OC[C@H]1O[C@@H](n2cnc3c(N)ncnc32)[C@H](O)[C@@H]1OP(=O)(O)O` [acetyl CoA, Acetyl Coenzyme A], at AAC(6′)-Ii [2], the Km is 23.5 µM.

One may read the Ki as a measure of affinity in units of concentration, obtained from inhibition or displacement. One may read the Km as the substrate concentration at which the rate is half of its maximum.
